Reference: the supplement of paper PMC11061612

How the values were obtained:
Assay in all cases: Bliss excess, mean over the matrix (fraction); higher = more synergy
[1] = test system: RL95-2 (Endometrial Carcinoma)
Method in brief: (§1)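 Cell lines grown in DMEM/F12 or RPMI with 10% FBS were plated in 1536-well plates and held 24 hours at 37°C, 5% CO2 before 72 hours of exposure to two-drug dose matrices, with DMSO typically at 0.2%. CellTiter-Glo 2.0 luminescence gave viability, which was converted to inhibition. Vehicle wells were set to 0 and blank wells to 1. Combination Emax is the second-highest inhibition in the matrix, and Bliss excess is the observed combination effect minus the expected EA + EB − EA·EB, where EA and EB are the single-agent effects.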

[2] = test system: HTC-C3 (Thyroid Gland Carcinoma)
Method in brief: as §1

[3] = test system: RMG-I (Ovarian Carcinoma)
Method in brief: as §1

786-0 (Kidney Carcinoma) = test system: 786-0 (Kidney Carcinoma)
Method in brief: as §1

[4] = test system: PC-14 (Lung Adenocarcinoma)
Method in brief: as §1

[5] = test system: RPMI-8866 (Chronic Myelogenous Leukemia)
Method in brief: as §1

[6] = test system: SNU-175 (Colorectal Carcinoma)
Method in brief: as §1

[7] = test system: AsPC-1 (Pancreatic Carcinoma)
Method in brief: as §1

[8] = test system: SK-MM-2 (Plasma Cell Myeloma)
Method in brief: as §1

KYM-1 (Rhabdomyosarcoma) = test system: KYM-1 (Rhabdomyosarcoma)
Method in brief: as §1

[9] = test system: OV-90 (Ovarian Carcinoma)
Method in brief: as §1

[10] = test system: NCI-H1155 (Non-Small Cell Lung Carcinoma)
Method in brief: as §1

[11] = test system: OVTOKO (Ovarian Carcinoma)
Method in brief: as §1

CHL-1 (Melanoma) = test system: CHL-1 (Melanoma)
Method in brief: as §1

RT4 (Bladder Carcinoma) = test system: RT4 (Bladder Carcinoma)
Method in brief: as §1

[12] = test system: PANC-02-03 (Pancreatic Carcinoma)
Method in brief: as §1

[13] = test system: JHH-1 (Hepatocellular Carcinoma)
Method in brief: as §1

[14] = test system: COLO-684 (Endometrial Carcinoma)
Method in brief: as §1

[15] = test system: HSC-3 (Oral Cavity Carcinoma)
Method in brief: as §1

[16] = test system: OCI-AML5 (Acute Myeloid Leukemia)
Method in brief: as §1

## NC1(C(=O)N[C@@H](CCO)c2ccc(Cl)cc2)CCN(c2ncnc3[nH]ccc23)CC1 [Capivasertib] + C[C@@H]1COCCN1C2=NC(=NC(=C2)C3(CC3)[S@](=N)(=O)C)C4=C5C=CNC5=NC=C4 [AZD6738] (first compound max 10 µM, 7x7, partner max 10 µM)
[1]
  Bliss excess: -0.0803
[2]
  Bliss excess: -0.0323
[3]
  Bliss excess: -0.0371
786-0 (Kidney Carcinoma)
  Bliss excess: -0.0708
[4]
  Bliss excess: -0.0355
[5]
  Bliss excess: -0.0323
[6]
  Bliss excess: -0.0099
[7]
  Bliss excess: -0.0359
[8]
  Bliss excess: -0.0164
KYM-1 (Rhabdomyosarcoma)
  Bliss excess: -0.0693
[9]
  Bliss excess: -0.0159
[10]
  Bliss excess: -0.0362
[11]
  Bliss excess: -0.0084
CHL-1 (Melanoma)
  Bliss excess: -0.0329
RT4 (Bladder Carcinoma)
  Bliss excess: -0.022
[12]
  Bliss excess: -0.004
[13]
  Bliss excess: -0.0294
[14]
  Bliss excess: -0.0262
[15]
  Bliss excess: -0.0346
[16]
  Bliss excess: -0.017

## NC1(C(=O)N[C@@H](CCO)c2ccc(Cl)cc2)CCN(c2ncnc3[nH]ccc23)CC1 [Capivasertib] + Cn1cnc2c(F)c(Nc3ccc(Br)cc3Cl)c(C(=O)NOCCO)cc21 [Selumetinib] (first compound max 10 µM, 7x7, partner max 10 µM)
[1]
  Bliss excess: 0.0367
[2]
  Bliss excess: 0.0677
[3]
  Bliss excess: 0.0235
786-0 (Kidney Carcinoma)
  Bliss excess: 0.0614
[4]
  Bliss excess: 0.0938
[5]
  Bliss excess: 0.0602
[6]
  Bliss excess: -0.0408
[7]
  Bliss excess: -0.039
[8]
  Bliss excess: -0.0293
KYM-1 (Rhabdomyosarcoma)
  Bliss excess: -0.0072
[9]
  Bliss excess: -0.0313
[10]
  Bliss excess: 0.0293
[11]
  Bliss excess: -0.0566
CHL-1 (Melanoma)
  Bliss excess: 0.0588
RT4 (Bladder Carcinoma)
  Bliss excess: -0.0196
[12]
  Bliss excess: 0.0589
[13]
  Bliss excess: -0.0896
[14]
  Bliss excess: -0.0343
[15]
  Bliss excess: 0.0081
[16]
  Bliss excess: 0.0645

## Cc1nc(Nc2ncc(C(=O)Nc3c(C)cccc3Cl)s2)cc(N2CCN(CCO)CC2)n1 [Dasatinib] + CC(=O)Nc1cccc(-n2c(=O)n(C3CC3)c(=O)c3c(Nc4ccc(I)cc4F)n(C)c(=O)c(C)c32)c1 [Trametinib] (first compound max 2 µM, 7x7, partner max 1 µM)
[1]
  Bliss excess: -0.186
[2]
  Bliss excess: -0.0093
[3]
  Bliss excess: -0.0276
786-0 (Kidney Carcinoma)
  Bliss excess: -0.0592
[4]
  Bliss excess: 0.0079
[5]
  Bliss excess: 0.073
[6]
  Bliss excess: -0.0992
[7]
  Bliss excess: 0.0506
[8]
  Bliss excess: -0.0157
KYM-1 (Rhabdomyosarcoma)
  Bliss excess: -0.0178
[9]
  Bliss excess: -0.0067
[10]
  Bliss excess: -0.0132
[11]
  Bliss excess: -0.139
CHL-1 (Melanoma)
  Bliss excess: 0.0137
RT4 (Bladder Carcinoma)
  Bliss excess: -0.0057
[12]
  Bliss excess: 0.0762
[13]
  Bliss excess: 0.0492
[14]
  Bliss excess: -0.0482
[15]
  Bliss excess: -0.0444
[16]
  Bliss excess: -0.0515

## COc1cccc2c1C(=O)c1c(O)c3c(c(O)c1C2=O)C[C@@](O)(C(=O)CO)C[C@@H]3O[C@H]1C[C@H](N)[C@H](O)[C@H](C)O1 [Doxorubicin] + Cc1cc2ncnn2cc1Nc1ncc2c(n1)n(C1CCOCC1)c(=O)n2C [AZD7648] (first compound max 1 µM, 7x7, partner max 10 µM)
[1]
  Bliss excess: -0.0064
[2]
  Bliss excess: 0.0263
[3]
  Bliss excess: -0.0445
786-0 (Kidney Carcinoma)
  Bliss excess: 0.082
[4]
  Bliss excess: 0.0728
[5]
  Bliss excess: 0.193
[6]
  Bliss excess: 0.0265
[7]
  Bliss excess: -0.033
[8]
  Bliss excess: -0.0137
KYM-1 (Rhabdomyosarcoma)
  Bliss excess: 0.0837
[9]
  Bliss excess: 0.0011
[10]
  Bliss excess: 0.138
[11]
  Bliss excess: -0.0578
CHL-1 (Melanoma)
  Bliss excess: 0.002
RT4 (Bladder Carcinoma)
  Bliss excess: 0.039
[12]
  Bliss excess: 0.0001
[13]
  Bliss excess: -0.0314
[14]
  Bliss excess: -0.003
[15]
  Bliss excess: 0.0907
[16]
  Bliss excess: 0.174

## COc1cc2ncnc(Nc3ccc(F)c(Cl)c3)c2cc1OCCCN1CCOCC1 [Gefitinib] + CC(C)n1c(=O)n(C)c2cnc3cc(F)c(-c4ccc(OCCCN5CCCCC5)nc4)cc3c21 [AZD1390] (first compound max 10 µM, 7x7, partner max 0.3 µM)
[1]
  Bliss excess: -0.0454
[2]
  Bliss excess: -0.0976
[3]
  Bliss excess: -0.0346
786-0 (Kidney Carcinoma)
  Bliss excess: -0.0652
[4]
  Bliss excess: -0.0565
[5]
  Bliss excess: -0.0857
[6]
  Bliss excess: -0.0457
[7]
  Bliss excess: -0.0975
[8]
  Bliss excess: -0.0267
KYM-1 (Rhabdomyosarcoma)
  Bliss excess: -0.0515
[9]
  Bliss excess: -0.0468
[10]
  Bliss excess: -0.056
[11]
  Bliss excess: -0.0672
CHL-1 (Melanoma)
  Bliss excess: -0.0472
RT4 (Bladder Carcinoma)
  Bliss excess: -0.176
[12]
  Bliss excess: -0.0431
[13]
  Bliss excess: -0.0772
[14]
  Bliss excess: -0.0395
[15]
  Bliss excess: -0.0649
[16]
  Bliss excess: -0.051

## CS(=O)(=O)CCNCc1ccc(-c2ccc3ncnc(Nc4ccc(OCc5cccc(F)c5)c(Cl)c4)c3c2)o1 [Lapatinib] + C[C@@H](Oc1cc(-c2cnn(C3CCNCC3)c2)cnc1N)c1c(Cl)ccc(F)c1Cl [Crizotinib] (first compound max 10 µM, 7x7, partner max 10 µM)
[1]
  Bliss excess: -0.0535
[2]
  Bliss excess: 0.0215
[3]
  Bliss excess: -0.0367
786-0 (Kidney Carcinoma)
  Bliss excess: -0.0666
[4]
  Bliss excess: -0.028
[5]
  Bliss excess: 0.005
[6]
  Bliss excess: -0.0001
[7]
  Bliss excess: -0.031
[8]
  Bliss excess: -0.0207
KYM-1 (Rhabdomyosarcoma)
  Bliss excess: -0.0515
[9]
  Bliss excess: -0.0019
[10]
  Bliss excess: -0.0185
[11]
  Bliss excess: -0.0437
CHL-1 (Melanoma)
  Bliss excess: -0.0393
RT4 (Bladder Carcinoma)
  Bliss excess: -0.0511
[12]
  Bliss excess: -0.0617
[13]
  Bliss excess: -0.0906
[14]
  Bliss excess: -0.0364
[15]
  Bliss excess: -0.0395
[16]
  Bliss excess: -0.003

## CC(=O)c1c(C)c2cnc(Nc3ccc(N4CCNCC4)cn3)nc2n(C2CCCC2)c1=O [Palbociclib] + CC1(C)CCC(CN2CCN(c3ccc(C(=O)NS(=O)(=O)c4ccc(NCC5CCOCC5)c([N+](=O)[O-])c4)c(Oc4cnc5[nH]ccc5c4)c3)CC2)=C(c2ccc(Cl)cc2)C1 [Venetoclax] (first compound max 10 µM, 7x7, partner max 1 µM)
[1]
  Bliss excess: 0.0133
[2]
  Bliss excess: -0.0214
[3]
  Bliss excess: -0.0541
786-0 (Kidney Carcinoma)
  Bliss excess: 0.0042
[4]
  Bliss excess: -0.0198
[5]
  Bliss excess: -0.0632
[6]
  Bliss excess: 0.0639
[7]
  Bliss excess: -0.0715
[8]
  Bliss excess: -0.0265
KYM-1 (Rhabdomyosarcoma)
  Bliss excess: -0.0392
[9]
  Bliss excess: -0.0553
[10]
  Bliss excess: 0.0241
[11]
  Bliss excess: -0.0114
CHL-1 (Melanoma)
  Bliss excess: -0.0357
RT4 (Bladder Carcinoma)
  Bliss excess: 0.0032
[12]
  Bliss excess: -0.0319
[13]
  Bliss excess: -0.0601
[14]
  Bliss excess: -0.0614
[15]
  Bliss excess: 0.0148
[16]
  Bliss excess: 0.0436

## CC(=O)c1c(C)c2cnc(Nc3ccc(N4CCNCC4)cn3)nc2n(C2CCCC2)c1=O [Palbociclib] + Cc1c2c(nn1C)CSCc1cc(n(C)n1)CSc1cc(c3ccccc3c1)OCCCc1c(C(=O)O)n(C)c3c-2c(Cl)ccc13 [AZD5991] (first compound max 10 µM, 7x7, partner max 1 µM)
[1]
  Bliss excess: -0.0841
[2]
  Bliss excess: 0.0082
[3]
  Bliss excess: -0.061
786-0 (Kidney Carcinoma)
  Bliss excess: 0.0201
[4]
  Bliss excess: -0.0106
[5]
  Bliss excess: -0.004
[6]
  Bliss excess: -0.0496
[7]
  Bliss excess: -0.0859
[8]
  Bliss excess: 0.0033
KYM-1 (Rhabdomyosarcoma)
  Bliss excess: 0.0337
[9]
  Bliss excess: -0.0568
[10]
  Bliss excess: -0.059
[11]
  Bliss excess: -0.0315
CHL-1 (Melanoma)
  Bliss excess: 0.0344
RT4 (Bladder Carcinoma)
  Bliss excess: -0.0244
[12]
  Bliss excess: -0.0522
[13]
  Bliss excess: -0.0111
[14]
  Bliss excess: -0.0173
[15]
  Bliss excess: -0.0811
[16]
  Bliss excess: 0.0572
